Assay results published in EPA's ToxValDB 9.5 (doi:10.2903/j.efsa.2009.193r).
Converted amounts (≈) assume the structure as drawn.

Legend:
[1] = system: Lepomis macrochirus; conditions: acute; duration: 96 hours; mortality
[2] = system: Apis mellifera; conditions: acute; duration: 48 hours; dermal; mortality
[3] = system: Coturnix japonica
[4] = system: Tagia sp.; conditions: acute; duration: 14 days; mortality
[5] = system: Rattus norvegicus
[6] = system: Anas platyrhynchos; conditions: short-term; oral; feed; mortality
[7] = system: Folsomia candida; conditions: chronic/long-term; duration: 28 days; mortality
[8] = system: Aphidius rhopalosiphi; test: LR50; higher = less toxic; conditions: not reported; mortality

[O-][n+]1nc(-n2ccnc2)nc2ccc(Cl)cc21 [Triazoxide] was tested, and the LC50 [1] was 0.077 µg/mL (≈ 0.311 µM), the LD50 [2] was over 200 µg/piece and the LD50 ([3]; acute, oral, mortality) was 90 mg/kg-day. It also gave an NOEC ([3]; reproduction developmental, duration: 6 weeks) of 11.7 mg/kg-day, an LC50 [4] of over 1000 mg/kg and an LD50 ([5]; acute, oral, mortality) of 98 mg/kg-day. For the same compound, the LOAEL ([5]; chronic, duration: 2 years, oral, diet, hematological) was 0.05 mg/kg-day, the NOAEL ([5]; reproduction developmental, organ weight) was 0.11 mg/kg-day and the NOAEL ([5]; reproduction developmental, reproduction) was 2.04 mg/kg-day. It also gave an NOAEL ([5]; short-term, duration: 28 days, oral, hematological) of 1.5 mg/kg-day, an NOAEL ([5]; subchronic, duration: 90 days, oral, hematological) of 0.21 mg/kg-day and an LD50 [6] of 268 mg/kg-day. It also gave an NOEC [7] of 500 mg/kg and an LR50 [8] of over 5.13 g/ha.
